The assay addresses PIK3CA (human) (UniProt P42336). The assay can be described thus: Inhibition of PIK3CA Kinase Activity.

Chain of PIK3CA (human) (P42336 whole entry, looked up): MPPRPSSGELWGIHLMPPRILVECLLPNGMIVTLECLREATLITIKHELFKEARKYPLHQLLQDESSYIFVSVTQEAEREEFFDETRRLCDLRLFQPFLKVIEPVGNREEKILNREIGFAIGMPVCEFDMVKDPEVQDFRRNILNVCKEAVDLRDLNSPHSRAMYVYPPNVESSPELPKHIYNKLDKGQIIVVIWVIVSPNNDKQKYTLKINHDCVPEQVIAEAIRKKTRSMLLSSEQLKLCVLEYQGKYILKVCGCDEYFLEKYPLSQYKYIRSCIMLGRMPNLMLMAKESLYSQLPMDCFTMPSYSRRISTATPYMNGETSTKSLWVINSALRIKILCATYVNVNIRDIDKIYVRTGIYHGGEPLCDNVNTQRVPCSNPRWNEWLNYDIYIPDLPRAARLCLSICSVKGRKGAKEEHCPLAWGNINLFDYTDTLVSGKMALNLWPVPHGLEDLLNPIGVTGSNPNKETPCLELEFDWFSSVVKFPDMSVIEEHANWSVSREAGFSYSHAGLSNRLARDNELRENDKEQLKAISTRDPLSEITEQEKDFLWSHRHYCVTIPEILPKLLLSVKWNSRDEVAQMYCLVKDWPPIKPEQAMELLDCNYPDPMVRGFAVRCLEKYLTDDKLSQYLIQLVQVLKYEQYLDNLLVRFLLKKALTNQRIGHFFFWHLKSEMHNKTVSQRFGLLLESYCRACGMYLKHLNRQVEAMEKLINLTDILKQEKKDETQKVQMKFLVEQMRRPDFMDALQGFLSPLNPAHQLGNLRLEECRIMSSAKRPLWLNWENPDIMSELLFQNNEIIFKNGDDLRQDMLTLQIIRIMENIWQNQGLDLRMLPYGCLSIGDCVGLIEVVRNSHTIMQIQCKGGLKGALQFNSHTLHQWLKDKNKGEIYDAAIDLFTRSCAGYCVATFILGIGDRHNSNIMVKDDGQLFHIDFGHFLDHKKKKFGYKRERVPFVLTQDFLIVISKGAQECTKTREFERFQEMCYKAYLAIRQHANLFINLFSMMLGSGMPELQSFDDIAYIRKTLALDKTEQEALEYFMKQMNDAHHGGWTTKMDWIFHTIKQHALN

`Cc1nc2ccc(-c3ccc4c(c3)CN(c3ncnc5ccc(OCCCN(C)C)cc35)CCO4)cc2[nH]1` yielded an IC50 of 250 to 1000 nM.
The same measure for `Cc1nc2cc(-c3ccc4c(c3)CN(c3nc(CN(C)C)nc(C)c3CC(C)C)CCO4)ccc2[nH]1`: 250 to 1000 nM; for `COc1c(Br)ccc2c(N3CCOc4ccc(-c5ccc6nc(C)[nH]c6c5)cc4C3)ncnc12`: 10 to 50 nM.
Under `CC1(C)CCc2ncnc(N3CCOc4ccc(-c5cnc(N)c(S(=O)(=O)NCC6CCNCC6)c5)cc4C3)c2C1` stands 10 to 50 nM.
Under `Cc1nc(CN(C)C)nc(N2CCOc3ccc(-c4cnc5sc(N)nc5c4)cc3C2)c1Br` stands 10 to 50 nM; under `COC(=O)Nc1nc2ccc(-c3ccc4c(c3)CN(c3ccnc5ccccc35)CCO4)cc2n1C`, 250 to 1000 nM; under `CN(C)S(=O)(=O)c1cc(-c2ccc3c(c2)CN(c2ncnc4c2CC(C)(C)CC4)CCO3)cnc1N`, 10 to 50 nM.
On to `CCN(CC)Cc1nc(C)c(C(C)C)c(N2CCOc3ccc(-c4ccc5nc(C)[nH]c5c4)cc3C2)n1`, for which the IC50 was in the range of 10 to 50 nM.
Under `Cc1nc2ccc(-c3ccc4c(c3)CN(c3ncnc5cc(F)ccc35)CCO4)cc2[nH]1` stands 10 to 50 nM; under `COc1cc2nccc(N3CCOc4ccc(-c5ccc6nc(N)[nH]c6c5)cc4C3)c2cc1OC`, 10 to 50 nM.
Under `COc1cccc2c(N3CCOc4ccc(-c5ccc6nc(C)[nH]c6c5)cc4C3)ncnc12` stands 10 to 50 nM; under `Cc1nc2ccc(-c3ccc4c(c3)CN(c3nc(-c5ccccn5)nc5c3CC(C)(C)CC5)CCO4)cc2[nH]1`, 250 to 1000 nM; under `COC(=O)Nc1nc2ccc(-c3ccc4c(c3)CN(c3ncnc5ccccc35)CCO4)cc2[nH]1`, 10 to 50 nM.
Under `Cc1nc2cc(-c3ccc4c(c3)CN(c3nc(CN(C)C)nc(C)c3C)CCO4)cnc2[nH]1` stands 10 to 50 nM; under `Cc1nc2cc(-c3ccc4c(c3)CN(c3nc(CO)nc(C)c3Cc3ccc(F)cc3)CCO4)ccc2[nH]1`, no more than 10 nM.
`COc1ccc2c(N3CCOc4ccc(-c5cnc6sc(NC(C)=O)nc6c5)cc4C3)nc(CN(C)C)nc2c1` had an IC50 of 10 to 50 nM.
As to `COc1ccc2nc(Cl)nc(N3CCOc4ccc(-c5ccc6nc(C)[nH]c6c5)cc4C3)c2c1`, the IC50 lay within 250 to 1000 nM.
Under `Cc1nc2ccc(-c3ccc4c(c3)CN(c3ncnc5c3CCC(C)C5)CCO4)cc2[nH]1` (stereo not given) stands 10 to 50 nM; under `CC1(C)CCc2ncnc(N3CCOc4ccc(-c5cnc(N)c(S(=O)(=O)NC6CC7CCC(C6)N7)c5)cc4C3)c2C1` (stereo not given), 50 to 250 nM.
`Cc1nc2ccc(-c3ccc4c(c3)CN(c3nc(CNC5CC5)nc(C)c3Cc3ccc(F)cc3)CCO4)cc2[nH]1` yielded an IC50 of 10 to 50 nM.
The same measure for `Cc1nc2ccc(-c3ccc4c(c3)CN(c3ncnc(C)c3CC3CC3)CCO4)cc2[nH]1`: 50 to 250 nM; for `COc1ccc(-c2ccc3c(c2)CN(c2nc(CN(C)C)nc4c2CC(C)(C)CC4)CCO3)cc1OC`: 10 to 50 nM; for `Cc1nc2ncc(-c3ccc4c(c3)CN(c3ncnc5c3CC(C)(C)CC5)CCO4)cc2[nH]1`: 10 to 50 nM.
For `COc1ccc2c(N3CCOc4ccc(-c5ccc(NC(C)=O)cc5)cc4C3)nc(C)nc2c1`, the half-inhibitory concentration (IC50) fell in the range of 250 to 1000 nM.
Under `Cc1nc2cc(-c3ccc4c(c3)CN(c3nc(N)nc(C)c3Cc3ccc(F)cc3)CCO4)ccc2[nH]1` stands no more than 10 nM; under `COC(=O)Nc1nc2ncc(-c3ccc4c(c3)CN(c3ncnc(C)c3Cc3ccc(F)cc3)CCO4)cc2[nH]1`, no more than 10 nM; under `Cc1ncnc(N2CCOc3ccc(-c4ccn5nc(N)nc5c4)cc3C2)c1Cc1ccc(F)cc1`, 10 to 50 nM.
The compound `Cc1nc2ncc(-c3ccc4c(c3)CN(c3ncnc(N5CCN(C)CC5)c3C)CCO4)cc2[nH]1` gave an IC50 of 50 to 250 nM.
For `Cc1nc2ncc(-c3ccc4c(c3)CN(c3nc(CN5CCC(F)(F)C5)nc5c3CC(C)(C)CC5)CCO4)cc2[nH]1`, the IC50 lay within 50 to 250 nM.
As for `CC1(C)CCc2ncnc(N3CCOc4ccc(-c5cnc(N)c(S(=O)(=O)N[C@H]6CCNC6)c5)cc4C3)c2C1`, the IC50 lay in the range of 10 to 50 nM.
The same measure for `Cc1c(NC2CCOCC2)ncnc1N1CCOc2ccc(-c3cnc4nc(C5CC5)[nH]c4c3)cc2C1`: 50 to 250 nM; for `CCNc1nc2ccc(-c3ccc4c(c3)CN(c3ccnc5ccc(OC)cc35)CCO4)cc2[nH]1`: 10 to 50 nM; for `CCc1nc2ncc(-c3ccc4c(c3)CN(c3nc(C)nc5c3CC(C)(C)CC5)CCO4)cc2[nH]1`: 10 to 50 nM.
For `Cc1nc(CN(C)C)nc(N2CCOc3ccc(-c4cnc5sc(N)nc5c4)cc3C2)c1-c1ccccc1`, the IC50 fell in the range of 10 to 50 nM.
The same measure for `CC1(C)CCc2ncnc(N3CCOc4ccc(-c5cnc(N)c(S(=O)(=O)N6CC[C@H](N)C6)c5)cc4C3)c2C1`: 10 to 50 nM; for `CC1(C)CCc2ncnc(N3CCOc4ccc(-c5cnc(N)c(S(=O)(=O)N6C7CCC6CC(N)C7)c5)cc4C3)c2C1` (stereo not given): 10 to 50 nM; for `C[C@H](CO)CS(=O)(=O)c1cc(-c2ccc3c(c2)CN(c2ncnc4c2CC(C)(C)CC4)CCO3)cnc1N`: 10 to 50 nM.
As to `Cc1ncnc(N2CCOc3ccc(-c4ccc(C(N)=O)cc4)cc3C2)c1Cc1ccc(F)cc1`, the IC50 was in the range of 10 to 50 nM.
`Cc1nc2ncc(-c3ccc4c(c3)CN(c3nc(CN5CC[C@@H](F)C5)nc5c3CC(C)(C)CC5)CCO4)cc2[nH]1` came in with an IC50 of no more than 10 nM.
Take `CNS(=O)(=O)c1cc(-c2ccc3c(c2)CN(c2ncnc4c2CC(C)(C)C=C4)CCO3)cnc1N`: the IC50 was 10 to 50 nM.
Under `CCNc1nc2ccc(-c3ccc4c(c3)CN(c3ncnc(Nc5ccc(OC)cc5)c3C)CCO4)cc2[nH]1` stands 10 to 50 nM; under `Cc1ncnc(N2CCOc3ccc(-c4ccc(C(=O)NC5CC5)cc4)cc3C2)c1Cc1ccc(F)cc1`, 250 to 1000 nM.
Compound `CNC(=O)c1ccc(-c2ccc3c(c2)CN(c2nc(CN(C)C)nc4c2CC(C)(C)CC4)CCO3)cc1` came in with an IC50 of 50 to 250 nM.
The same measure for `Cc1nc2cc(-c3ccc4c(c3)CN(c3nc(CN(C)C)nc(C)c3-c3ccccc3)CCO4)ccc2[nH]1`: 50 to 250 nM; for `CCNc1nc2ncc(-c3ccc4c(c3)CN(c3ccncn3)CCO4)cc2[nH]1`: 50 to 250 nM.
Take `Cc1nc(N2CCOc3ccc(-c4ccc5nc(C)[nH]c5c4)cc3C2)c2ccccc2n1`: the IC50 lay in the range of 10 to 50 nM.
Under `COC1Cc2nc(CN(C)C)nc(N3CCOc4ccc(-c5ccc6scnc6c5)cc4C3)c2CC1(C)C` (stereo not given) stands 250 to 1000 nM; under `Nc1nc2ncc(-c3ccc4c(c3)CN(c3ncnc5ccc(Cl)cc35)CCO4)cc2[nH]1`, no more than 10 nM.
The compound `Cc1nc(CNCCF)nc(N2CCOc3ccc(-c4cnc5sc(N)nc5c4)cc3C2)c1C(C)C` returned an IC50 of no more than 10 nM.
Under `CC1(C)CCc2ncnc(N3CCOc4ccc(-c5cnc(N)c(S(=O)(=O)NC6CCC6)c5)cc4C3)c2C1` stands 10 to 50 nM.
The same measure for `Cc1nc2ccc(-c3ccc4c(c3)CN(c3ccnc5ccccc35)CCO4)cc2[nH]1`: 10 to 50 nM; for `CC1(C)CCc2ncnc(N3CCOc4ccc(-c5cnc(N)c(S(=O)(=O)NC[C@@H]6CCCNC6)c5)cc4C3)c2C1`: 50 to 250 nM.
The same measure for `CN(C)CCNS(=O)(=O)c1cc(-c2ccc3c(c2)CN(c2ncnc4c2CC(C)(C)CC4)CCO3)cnc1N`: 50 to 250 nM; for `Cc1nc(C)c(Cc2ccc(F)cc2)c(N2CCOc3ccc(-c4ccc5nc(C)[nH]c5c4)cc3C2)n1`: 10 to 50 nM.
`COc1c(OCc2ccc3ccccc3n2)ccc2c(N3CCOc4ccc(-c5ccc6nc(C)[nH]c6c5)cc4C3)ncnc12`: the IC50 was 250 to 1000 nM.

What is called IC50 is the concentration at which inhibition is half-maximal. The low end stands for greater potency in that assay, the high end for weaker potency in that assay.

The record behind these values is the Kinase Knowledgebase extract (Sharma et al. 2016).
